Assay results: ChEMBL document CHEMBL4265893, “Design, synthesis and biological evaluation of ring A modified 11-keto-boswellic acid derivatives as Pin1 inhibitors with remarkable anti-prostate cancer activity” (Bioorg Med Chem Lett, 2018)

Columns and labels:
PC-3 [1] = test: Antiproliferative activity against human PC3 cells after 96 hrs by MTT assay; type: functional; conditions: PC-3, 96 h
[2] = molecular target: T1, Peptidyl-prolyl cis-trans isomerase NIMA-interacting 1 (Homo sapiens, UniProt Q13526); test: Inhibition of recombinant N-terminal His6-tagged human Pin1 at 10 uM using Suc-Ala-Glu-cis-Pro-Phe-4-nitroanilide as substrate preincubated for 30 mins followed by substrate addition measured for 90 secs
T1 sequence (Q13526 whole entry): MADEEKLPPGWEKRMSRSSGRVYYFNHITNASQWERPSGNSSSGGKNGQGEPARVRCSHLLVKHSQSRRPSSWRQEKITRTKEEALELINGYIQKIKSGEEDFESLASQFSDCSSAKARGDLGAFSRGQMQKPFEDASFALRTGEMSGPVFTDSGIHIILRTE

[3] = molecular target: T1, Peptidyl-prolyl cis-trans isomerase NIMA-interacting 1; test: Inhibition of recombinant N-terminal His6-tagged human Pin1 using Suc-Ala-Glu-cis-Pro-Phe-4-nitroanilide as substrate preincubated for 30 mins followed by substrate addition measured for 90 secs
PC-3 [4] = test: Cell cycle arrest in human PC3 cells assessed as accumulation at G0/G1 phase at 0.5 uM after 24 hrs by RNase/propidium iodide staining-based flow cytometric analysis (reference value: 55.03%); type: functional
PC-3 [5] = test: Cell cycle arrest in human PC3 cells assessed as accumulation at G0/G1 phase at 1 uM after 24 hrs by RNase/propidium iodide staining-based flow cytometric analysis (reference value: 55.03%); type: functional
PC-3 [6] = test: Cell cycle arrest in human PC3 cells assessed as accumulation at G0/G1 phase at 0.25 uM after 24 hrs by RNase/propidium iodide staining-based flow cytometric analysis (reference value: 55.03%); type: functional
PC-3 [7] = test: Induction of apoptosis in human PC3 cells assessed as downregulation of Cyclin D1 expression after 24 hrs by Western blot analysis; type: functional, cell-based

GI50 (PC-3 [1])	inhibition [2]	IC50 [3]	Compound	Activity (PC-3 [4])	Activity (PC-3 [5])	Activity (PC-3 [6])	Activity (PC-3 [7])
8.84 µM	95%	0.97 µM	C[C@H]1[C@H](C)CC[C@]2(C)CC[C@]3(C)C(=CC(=O)[C@@H]4[C@@]5(C)CC[C@@H](OC(=O)COc6ccc(C(=O)/C=C/c7ccccc7)cc6)[C@](C)(C(=O)O)[C@@H]5CC[C@]43C)[C@H]12	–	–	–	–
12.5 µM	80%	2.18 µM	C[C@H]1[C@H](C)CC[C@]2(C)CC[C@]3(C)C(=CC(=O)[C@@H]4[C@@]5(C)CC[C@@H](OC(=O)CN6CCN(c7cccc(C(F)(F)F)c7)CC6)[C@](C)(C(=O)O)[C@@H]5CC[C@]43C)[C@H]12	–	–	–	–
> 50 µM	43%	–	COC(=O)[C@@]1(C)C(=O)/C(=C/c2ccc(C(=O)O)cc2)C[C@]2(C)[C@H]3C(=O)C=C4[C@@H]5[C@@H](C)[C@H](C)CC[C@]5(C)CC[C@@]4(C)[C@]3(C)CC[C@@H]12	–	–	–	–
26.9 µM	29%	–	C[C@H]1[C@H](C)CC[C@]2(C)CC[C@]3(C)C(=CC(=O)[C@@H]4[C@@]5(C)Cc6c(C(=O)O)noc6[C@](C)(C(=O)OCc6ccccc6)[C@@H]5CC[C@]43C)[C@H]12	–	–	–	–
8 µM	51%	–	COC(=O)[C@@]1(C)C(=O)/C(=C/C(=O)O)C[C@]2(C)[C@H]3C(=O)C=C4[C@@H]5[C@@H](C)[C@H](C)CC[C@]5(C)CC[C@@]4(C)[C@]3(C)CC[C@@H]12	–	–	–	–
> 50 µM	57%	–	COc1ccccc1/C=C1\C[C@]2(C)[C@H]3C(=O)C=C4[C@@H]5[C@@H](C)[C@H](C)CC[C@]5(C)CC[C@@]4(C)[C@]3(C)CC[C@H]2[C@@](C)(C(=O)OCc2ccccc2)C1=O	–	–	–	–
7.8 µM	66%	–	C[C@H]1[C@H](C)CC[C@]2(C)CC[C@]3(C)C(=CC(=O)[C@@H]4[C@@]5(C)CC[C@@H](OC(=O)COc6ccc(-c7cc(-c8ccccc8)[nH]n7)cc6)[C@](C)(C(=O)O)[C@@H]5CC[C@]43C)[C@H]12	–	–	–	–
> 50 µM	37%	–	C[C@H]1[C@H](C)CC[C@]2(C)CC[C@]3(C)C(=CC(=O)[C@@H]4[C@@]5(C)C/C(=C\c6ccccc6)C(=O)[C@](C)(C(=O)OCc6ccccc6)[C@@H]5CC[C@]43C)[C@H]12	–	–	–	–
> 50 µM	49%	–	C[C@H]1[C@H](C)CC[C@]2(C)CC[C@]3(C)C(=CC(=O)[C@@H]4[C@@]5(C)CC[C@@H](OC(=O)CN6CCNCC6)[C@](C)(C(=O)O)[C@@H]5CC[C@]43C)[C@H]12	–	–	–	–
1.82 µM	97%	0.46 µM	C[C@H]1[C@H](C)CC[C@]2(C)CC[C@]3(C)C(=CC(=O)[C@@H]4[C@@]5(C)C/C(=C\C(=O)O)C(=O)[C@](C)(C(=O)OCc6ccccc6)[C@@H]5CC[C@]43C)[C@H]12	67.62%	72%	62.35%	Dose-dependent effect
> 50 µM	59%	–	C[C@H]1[C@H](C)CC[C@]2(C)CC[C@]3(C)C(=CC(=O)[C@@H]4[C@@]5(C)CC[C@@H](OC(=O)CN(CCO)CCO)[C@](C)(C(=O)O)[C@@H]5CC[C@]43C)[C@H]12	–	–	–	–
37.6 µM	56%	–	COC(=O)[C@@]1(C)c2[nH]nc(C(=O)O)c2C[C@@]2(C)[C@H]1CC[C@]1(C)[C@@H]2C(=O)C=C2[C@@H]3[C@@H](C)[C@H](C)CC[C@]3(C)CC[C@]21C	–	–	–	–
13.7 µM	94%	1.27 µM	C[C@H]1[C@H](C)CC[C@]2(C)CC[C@]3(C)C(=CC(=O)[C@@H]4[C@@]5(C)CC[C@@H](OC(=O)CN(C)c6ccccc6)[C@](C)(C(=O)O)[C@@H]5CC[C@]43C)[C@H]12	–	–	–	–
7.11 µM	89%	0.55 µM	C[C@H]1[C@H](C)CC[C@]2(C)CC[C@]3(C)C(=CC(=O)[C@@H]4[C@@]5(C)C/C(=C\C(=O)O)C(=O)[C@](C)(C(=O)N6CCCCC6)[C@@H]5CC[C@]43C)[C@H]12	–	–	–	–
31.9 µM	26%	50.4 µM	CC(=O)O[C@@H]1CC[C@@]2(C)[C@@H](CC[C@]3(C)[C@@H]2C(=O)C=C2[C@@H]4[C@@H](C)[C@H](C)CC[C@]4(C)CC[C@]23C)[C@@]1(C)C(=O)O [AKBA]	–	–	–	–
37.9 µM	24%	–	C[C@H]1[C@H](C)CC[C@]2(C)CC[C@]3(C)C(=CC(=O)[C@@H]4[C@@]5(C)CC[C@@H](OC(=O)CN6CCN(C)CC6)[C@](C)(C(=O)O)[C@@H]5CC[C@]43C)[C@H]12	–	–	–	–
15.2 µM	69%	–	COC(=O)[C@@]1(C)C(=O)/C(=C/c2ccccc2C(=O)O)C[C@]2(C)[C@H]3C(=O)C=C4[C@@H]5[C@@H](C)[C@H](C)CC[C@]5(C)CC[C@@]4(C)[C@]3(C)CC[C@@H]12	–	–	–	–

The next lines start with the compound.

Compound	GI50 (PC-3 [1])	inhibition [2]	IC50 [3]	Activity (PC-3 [4])	Activity (PC-3 [5])	Activity (PC-3 [6])	Activity (PC-3 [7])
C[C@H]1[C@H](C)CC[C@]2(C)CC[C@]3(C)C(=CC(=O)[C@@H]4[C@@]5(C)CC[C@@H](OC(=O)CN6CCOCC6)[C@](C)(C(=O)O)[C@@H]5CC[C@]43C)[C@H]12	10.6 µM	78%	–	–	–	–	–
C[C@H]1[C@H](C)CC[C@]2(C)CC[C@]3(C)C(=CC(=O)[C@@H]4[C@@]5(C)C/C(=C\c6ccc(C(=O)O)cc6)C(=O)[C@](C)(C(=O)OCc6ccccc6)[C@@H]5CC[C@]43C)[C@H]12	32.1 µM	40%	–	–	–	–	–
C[C@H]1[C@H](C)CC[C@]2(C)CC[C@]3(C)C(=CC(=O)[C@@H]4[C@@]5(C)Cc6c(C(=O)O)n[nH]c6[C@](C)(C(=O)OCc6ccccc6)[C@@H]5CC[C@]43C)[C@H]12	22.7 µM	31%	–	–	–	–	–
CC(=O)N1N=C(c2ccc(OCC(=O)O[C@@H]3CC[C@@]4(C)[C@@H](CC[C@]5(C)[C@@H]4C(=O)C=C4[C@@H]6[C@@H](C)[C@H](C)CC[C@]6(C)CC[C@]45C)[C@@]3(C)C(=O)O)cc2)CC1c1ccccc1 (some centres undefined)	9.42 µM	32%	–	–	–	–	–
COC(=O)[C@@]1(C)c2onc(C(=O)O)c2C[C@@]2(C)[C@H]1CC[C@]1(C)[C@@H]2C(=O)C=C2[C@@H]3[C@@H](C)[C@H](C)CC[C@]3(C)CC[C@]21C	37.6 µM	41%	–	–	–	–	–
C[C@H]1[C@H](C)CC[C@]2(C)CC[C@]3(C)C(=CC(=O)[C@@H]4[C@@]5(C)CC[C@@H](OC(=O)CN6CCCCC6)[C@](C)(C(=O)O)[C@@H]5CC[C@]43C)[C@H]12	11.6 µM	95%	1.01 µM	–	–	–	–
C[C@H]1[C@H](C)CC[C@]2(C)CC[C@]3(C)C(=CC(=O)[C@@H]4[C@@]5(C)C/C(=C\C(=O)O)C(=O)[C@](C)(C(=O)N6CCOCC6)[C@@H]5CC[C@]43C)[C@H]12	2.78 µM	82%	2.68 µM	–	–	–	–
CCN(CC)CC(=O)O[C@@H]1CC[C@@]2(C)[C@@H](CC[C@]3(C)[C@@H]2C(=O)C=C2[C@@H]4[C@@H](C)[C@H](C)CC[C@]4(C)CC[C@]23C)[C@@]1(C)C(=O)O	10.7 µM	58%	–	–	–	–	–
C[C@H]1[C@H](C)CC[C@]2(C)CC[C@]3(C)C(=CC(=O)[C@@H]4[C@@]5(C)CC[C@@H](OC(=O)CNc6ccccc6)[C@](C)(C(=O)O)[C@@H]5CC[C@]43C)[C@H]12	12.1 µM	46%	–	–	–	–	–
C[C@H]1[C@H](C)CC[C@]2(C)CC[C@]3(C)C(=CC(=O)[C@@H]4[C@@]5(C)C/C(=C\c6ccccc6C(=O)O)C(=O)[C@](C)(C(=O)OCc6ccccc6)[C@@H]5CC[C@]43C)[C@H]12	3.29 µM	94%	0.68 µM	–	–	–	–
C[C@H]1[C@H](C)CC[C@]2(C)CC[C@]3(C)C(=CC(=O)[C@@H]4[C@@]5(C)CC[C@@H](OC(=O)COc6ccccc6)[C@](C)(C(=O)O)[C@@H]5CC[C@]43C)[C@H]12	18.5 µM	35%	–	–	–	–	–
CC1CCN(CC(=O)O[C@@H]2CC[C@@]3(C)[C@@H](CC[C@]4(C)[C@@H]3C(=O)C=C3[C@@H]5[C@@H](C)[C@H](C)CC[C@]5(C)CC[C@]34C)[C@@]2(C)C(=O)O)CC1	15.6 µM	78%	–	–	–	–	–
C[C@H]1[C@H](C)CC[C@]2(C)CC[C@]3(C)C(=CC(=O)[C@@H]4[C@@]5(C)CC[C@@H](OC(=O)COc6ccc(Oc7ccccc7)cc6)[C@](C)(C(=O)O)[C@@H]5CC[C@]43C)[C@H]12	12.5 µM	90%	1.58 µM	–	–	–	–
